Source: patent US20100298285A1, “Biclycloheteroaryl Compounds as P2x7 Modulators and Uses Thereof” (priority 2006, published 2010)

Tested on: IL-1β release, THP-1 cells
Assay: IL-1β release assay in differentiated THP-1 cells stimulated with BzATP (Example 9)
Format: cell-based
Details: Homo sapiens; for inhibition at 0.3 µM: 0.3 μM compound ("+" symbols); for inhibition at 0.3 µM / inhibition at 0.1 µM: differentiated THP-1 cells, 250 uM BzATP, read-out: IL-1β% Inhib. @ 0.3 or 0.1 μM; for IC50: THP-1 cells, BzATP 250 uM, four parameter logistic fit; for inhibition at 0.1 µM: 0.1 μM compound ("*" symbols)
Description: THP-1 cells (ATCC Cat # 285-IF-100) are plated in 96 well plates at a concentration of 200,000 cells per well and allowed to differentiate in RPMI-1640 media (ATCC Cat # 30-2001) containing 10% FBS, 100 IU/mL penicillin, 100 ug/mL streptomycin, 100 ng/mL LPS and 100 ng/mL IFN-γ for 16 hours. Following differentiation, the cells are treated for an additional 2 hours in RPMI-1640 media containing 100 IU/mL penicillin, 100 ug/mL streptomycin and fresh LPS at 100 ng/mL. The cells are then pretreated for 30 minutes with the compound of interest at the appropriate concentration in RPMI media containing 100 IU/mL penicillin, 100 ug/mL streptomycin. Following the pretreatment 2′,3′-O-(4-benzoylbenzoyl)-adenosine 5′-triphosphate (Sigma Aldrich Cat # B6396) is added to a final concentration of 250 uM and the cells are incubated for an additional 45 minutes. 30 uL of cell supernatant is then collected and IL-1β levels determined via ELISA (R&D systems Cat. # HSLB50) according to manufacturer's recommendations using the Tecan Safire plate reader. Background adjusted IL-1β levels of drug treated and non-treated cells are used to calculate the percent inhibition.
The following compounds have been or can be prepared according to the synthetic methods described above. For the purpose of Table 1 below, activity of each compound, which can be determined using the IL-1β assay method described in Example 9, is expressed as follows: […]
The compounds set forth in Table 1 were tested for activity in a cellular model as described herein. Specifically, cells were pretreated with differing amounts of the compound under test and released IL-1β determined as in Example 9, above. Measurements were made and IC50 values, presented in Table 2, below, were determined by fitting the data to a four parameter logistic equation using GraphPad Prism software (GraphPad Software, Inc). The equation may be expressed by the following formula:
Y=Bottom+(Top−Bottom)/(1+10̂((Log EC50−X)*HillSlope))
Where X is the logarithm of concentration, Y is the response and Y starts at Bottom and goes to Top with a sigmoid shape.

IC50 [nM] | SMILES | inhibition at 0.3 µM [%] | inhibition at 0.1 µM [%]
 | COc1ccccc1C(=O)N1CCc2c(ccc(Cl)c2NC(=O)Cc2cccc(C(F)(F)F)c2F)C1 [Compound 3184] | 0 to 25 | 
64.2 | O=C(Cc1ccc(C(F)(F)F)c(F)c1)Nc1cccc2c1CCN(C(=O)C1COc3ccccc3C1)C2 (centres unmarked) [Compound 3040] | ≥ 76 | 
 | O=C(Cc1cccc(C(F)(F)F)c1F)Nc1c(Cl)ccc2c1CCN(C(=O)C1CC1)C2 [Compound 3165] | 0 to 25 | 
 | O=C(Cc1cccc(C(F)(F)F)c1F)Nc1c(Cl)ccc2c1CCN(C(=O)C1COc3ccccc3O1)C2 (centres unmarked) [Compound 3174] | 0 to 25 | 
74.9 | Cc1ccc2c(c1NC(=O)Cc1ccc(C(F)(F)F)c(F)c1)CCN(C(=O)[C@H]1CCN1)C2 [Compound 3480] |  | 
 | O=C(Cc1cccc(C(F)(F)F)c1F)Nc1c(Cl)ccc2c1CCN(C(=O)Cc1ccc(Cl)cc1)C2 [Compound 3168] | 0 to 25 | 
73 | O=C(Cc1ccc(C(F)(F)F)c(F)c1)Nc1cccc2c1CCN(C(=O)[C@H]1CCCN1)C2 [Compound 3051] | ≥ 76 | 
 | O=C(Cc1ccc(C(F)(F)F)c(F)c1)Nc1c(Cl)ccc2c1CCN(C(=O)c1cccc3ccccc13)C2 [Compound 3121] | 0 to 25 | 
 | CCCC(=O)N1CCc2c(ccc(Cl)c2NC(=O)Cc2ccc(C(F)(F)F)c(F)c2)C1 [Compound 3123] | 0 to 25 | 
 | O=C(Cc1cccc(C(F)(F)F)c1F)Nc1c(Cl)ccc2c1CCN(C(=O)c1cccc3ccccc13)C2 [Compound 3185] | 0 to 25 | 
65.4 | CCCCS(=O)(=O)N1CCc2c(ccc(C)c2NC(=O)Cc2ccc(C(F)(F)F)c(F)c2)C1 [Compound 3448] |  | 
61.9 | Cc1ccc2c(c1NC(=O)Cc1ccc(C(F)(F)F)c(F)c1)CCN(C(=O)CCC1CCCCC1)C2 [Compound 3251] |  | 
 | O=C(Cc1ccc(C(F)(F)F)c(F)c1)Nc1c(Cl)ccc2c1CCN(C(=O)CCC1CCCC1)C2 [Compound 3075] | 0 to 25 | 
492 | CS(=O)(=O)N1CCc2c(ccc(Cl)c2NC(=O)Cc2ccc(C(F)(F)F)cc2)C1 [Compound 3050] | 26 to 50 | 
 | O=C(Cc1ccc(C(F)(F)F)cc1)Nc1c(Cl)ccc2c1CCN(S(=O)(=O)c1ccc(Cl)c(C(F)(F)F)c1)C2 [Compound 3020] |  | 0 to 25
60.7 | O=C(Cc1ccc(C(F)(F)F)c(F)c1)Nc1c(Cl)ccc2c1CCN(S(=O)(=O)c1ccccc1Cl)C2 [Compound 3287] |  | 
> 1000 | O=C(Cc1ccc(C(F)(F)F)c(F)c1)Nc1cccc2c1CCN(C(=O)C1COc3ccccc3O1)C2 (centres unmarked) [Compound 3036] | 0 to 25 | 
 | O=C(Cc1cccc(C(F)(F)F)c1F)Nc1c(Cl)ccc2c1CCN(C(=O)COc1ccc(Cl)cc1)C2 [Compound 3167] | 26 to 50 | 
 | O=C(Cc1ccc(C(F)(F)F)cc1)Nc1c(Cl)ccc2c1CCN(S(=O)(=O)c1cccc(Cl)c1Cl)C2 [Compound 3014] |  | 0 to 25
182 | O=C(Cc1ccc(C(F)(F)F)c(F)c1)Nc1cccc2c1CCN(C(=O)[C@@H]1CCCN1)C2 [Compound 3055] | 51 to 75 | 
 | CCC(C(=O)N1CCc2c(ccc(Cl)c2NC(=O)Cc2cccc(C(F)(F)F)c2F)C1)c1ccccc1 (centres unmarked) [Compound 3157] | 0 to 25 | 
192 | COc1ccc2c(c1NC(=O)Cc1ccc(C(F)(F)F)c(F)c1)CCN(C(=O)CC1(O)CCCC(C)(C)C1)C2 (centres unmarked) [Compound 3478, 2-(3-Fluoro-4-trifluoromethyl-phenyl)-N-{2-[2-(1-hydroxy-3,3-dimethyl-cyclohexyl)-acetyl]-6-methoxy-1,2,3,4-tetrahydro-isoquinolin-5-yl}-acetamide] |  | 
 | O=C(Cc1ccc(C(F)(F)F)c(F)c1)Nc1c(Cl)ccc2c1CCN(C(=O)c1cc(F)ccc1F)C2 [Compound 3113] | 0 to 25 | 
 | CC(C)(C)c1ccc(C(=O)N2CCc3c(ccc(Cl)c3NC(=O)Cc3cccc(C(F)(F)F)c3F)C2)cc1 [Compound 3188] | ≥ 76 | 
 | O=C(Cc1cccc(C(F)(F)F)c1F)Nc1c(Cl)ccc2c1CCN(C(=O)C1CC1c1ccccc1)C2 (centres unmarked) [Compound 3162] | 26 to 50 | 

IC50 [nM] | SMILES | inhibition at 0.3 µM [%] | inhibition at 0.1 µM [%]
 | O=C(Cc1cccc(C(F)(F)F)c1F)Nc1c(Cl)ccc2c1CCN(C(=O)c1ccc(Oc3ccccc3)nc1)C2 [Compound 3197] | 0 to 25 | 
 | O=C(Cc1cccc(C(F)(F)F)c1F)Nc1c(Cl)ccc2c1CCN(C(=O)CC1CCCC1)C2 [Compound 3166] | 0 to 25 | 
 | O=C(Cc1ccc(C(F)(F)F)c(F)c1)Nc1c(Cl)ccc2c1CCN(C(=O)Cc1ccc(F)cc1)C2 [Compound 3083] | 0 to 25 | 
 | O=C(Cc1cccc(C(F)(F)F)c1F)Nc1c(Cl)ccc2c1CCN(C(=O)c1ccc(Cl)c(Cl)c1)C2 [Compound 3148] | 0 to 25 | 
 | O=C(Cc1ccc(C(F)(F)F)cc1)Nc1c(Cl)ccc2c1CCN(S(=O)(=O)c1cccc(F)c1)C2 [Compound 3003] |  | 0 to 25
150 | O=C(Cc1ccc(C(F)(F)F)c(F)c1)Nc1cccc2c1CCN(CC(O)C(O)(c1ccccc1)C(F)(F)F)C2 (centres unmarked) [Compound 3067] | ≥ 76 | 
49.3 | O=C(Cc1ccc(C(F)(F)F)cc1)Nc1c(Cl)ccc2c1CCN(S(=O)(=O)c1ccccc1Cl)C2 [Compound 3001, N-[6-Chloro-2-(2-chloro-benzenesulfonyl)-1,2,3,4-tetrahydro-isoquinolin-5-yl]-2-(4-trifluoromethyl-phenyl)-acetamide] | ≥ 76 | 
 | O=C(Cc1ccc(C(F)(F)F)c(F)c1)Nc1c(Cl)ccc2c1CCN(C(=O)COc1ccc(Cl)cc1)C2 [Compound 3104] | 0 to 25 | 
 | COc1cccc(C(=O)N2CCc3c(ccc(Cl)c3NC(=O)Cc3cccc(C(F)(F)F)c3F)C2)c1 [Compound 3153] | 0 to 25 | 
 | N#Cc1ccc(C(=O)N2CCc3c(ccc(Cl)c3NC(=O)Cc3ccc(C(F)(F)F)c(F)c3)C2)cc1 [Compound 3098] | 0 to 25 | 
 | Cc1cccc(C(=O)N2CCc3c(ccc(Cl)c3NC(=O)Cc3cccc(C(F)(F)F)c3F)C2)c1 [Compound 3140] | 0 to 25 | 
41.3 | Cc1ccc2c(c1NC(=O)Cc1ccc(C(F)(F)F)c(F)c1)CCN(S(=O)(=O)c1ccccc1F)C2 [Compound 3460] |  | 
 | Cc1cccc(S(=O)(=O)N2CCc3c(ccc(Cl)c3NC(=O)Cc3ccc(C(F)(F)F)cc3)C2)c1 [Compound 3024] |  | 0 to 25
 | O=C(Cc1ccc(C(F)(F)F)cc1)Nc1c(Cl)ccc2c1CCN(S(=O)(=O)c1c(F)cccc1F)C2 [Compound 3009] |  | 0 to 25
> 1000 | O=C(Cc1ccc(C(F)(F)F)c(F)c1)Nc1cccc2c1CCN(CC(O)CF)C2 (centres unmarked) [Compound 3064] | 0 to 25 | 
47.2 | CCCCS(=O)(=O)N1CCc2c(ccc(Cl)c2NC(=O)Cc2cccc(C(F)(F)F)c2F)C1 [Compound 3327] |  | 
430 | O=C(Cc1ccc(C(F)(F)F)c(F)c1)Nc1cccc2c1CCN(C(=O)C1CCOCC1)C2 [Compound 3038] | 0 to 25 | 
 | O=C(Cc1ccc(C(F)(F)F)c(F)c1)Nc1c(Cl)ccc2c1CCN(C(=O)C1CCC1)C2 [Compound 3101] | 0 to 25 | 
199 | CC(C)(C)OC(=O)N1CCC(OCC(=O)N2CCc3c(cccc3NC(=O)Cc3ccc(C(F)(F)F)c(F)c3)C2)CC1 [Compound 3047] | 51 to 75 | 
 | N#Cc1ccc(C(=O)N2CCc3c(ccc(Cl)c3NC(=O)Cc3cccc(C(F)(F)F)c3F)C2)cc1 [Compound 3161] | 0 to 25 | 
 | COc1ccc(C(=O)N2CCc3c(ccc(Cl)c3NC(=O)Cc3cccc(C(F)(F)F)c3F)C2)cc1OC [Compound 3193] | 0 to 25 | 
> 1000 | N#CN1CCc2c(cccc2NC(=O)Cc2ccc(C(F)(F)F)c(F)c2)C1 [Compound 3053, N-(2-Cyano-1,2,3,4-tetrahydro-isoquinolin-5-yl)-2-(3-fluoro-4-trifluoromethyl-phenyl)-acetamide] | 0 to 25 | 
 | O=C(Cc1ccc(C(F)(F)F)c(F)c1)Nc1c(Cl)ccc2c1CCN(C(=O)c1nccs1)C2 [Compound 3134] | 26 to 50 | 
 | O=C(Cc1cccc(C(F)(F)F)c1F)Nc1c(Cl)ccc2c1CCN(C(=O)c1ccc3ccccc3n1)C2 [Compound 3189] | 0 to 25 | 
256 | CC(c1ccc(F)cc1)N1CCc2c(cccc2NC(=O)Cc2ccc(C(F)(F)F)c(F)c2)C1 (centres unmarked) [Compound 3059, N-{2-[1-(4-Fluoro-phenyl)-ethyl]-1,2,3,4-tetrahydro-isoquinolin-5-yl}-2-(3-fluoro-4-trifluoromethyl-phenyl)-acetamide] | 51 to 75 | 
